Literature values in patent US9635858B2, “Pesticide and a method of controlling a wide variety of pests” (GOWAN COMERCIO INTERNACIONAL E SERVICOS LIMITADA, priority 2011, dated 2017).

Conditions: rats; cited from earlier work

C/C=C(\C)C(=O)O[C@H]1C[C@@H](OC(C)=O)[C@@]2(C(=O)OC)CO[C@H]3[C@@H](O)[C@@](C)([C@]45O[C@@]4(C)[C@H]4C[C@@H]5O[C@@H]5OC=C[C@@]54O)C4[C@]1(CO[C@]4(O)C(=O)OC)[C@@H]32 (stereo partly shown) [Azadirachtin]
LD50: > 3,540 mg/kg
